In patent US5053070A, “Pyrimidine derivatives, preparation processes thereof, herbicide containing the same, and herbicidal compositions containing the same along with other active ingredient” (Mitsui Toatsu Chemicals, Incorporated, priority 1988, dated 1991):

How the values were obtained:
[1] = tested on: ALS (acetolactate syntase); assay: ALS enzyme assay (Test 1); type: biochemical, barnyardgrass; conditions: 1,000 ppm (0.5 mg/0.5 ml)
Method in brief: (§1)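 Partially purified ALS from dark-grown pea and barnyardgrass seedlings incubated 1 h at 30° C with pyruvate, TPP, MgCl2 and FAD. Compounds tested at 1,000 ppm (0.5 mg/0.5 ml). Acetoin formed detected colorimetrically at 525 nm via creatine/α-naphthol, relative to blank and acid-stopped controls.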

[2] = tested on: ALS (acetolactate syntase); assay: ALS enzyme assay (Test 1); type: biochemical, pea; conditions: 1,000 ppm (0.5 mg/0.5 ml)
Method in brief: as §1

[3] = tested on: barnyardgrass; assay: Upland foliar application test (Test 3); type: in vivo; conditions: 30 g ai/a, foliar spray at 2-3 leaves, 30th day
Method in brief: (§2)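 Plants were grown from seed in upland-field soil in a greenhouse. At the 2-3 leaf stage, an emulsion of each compound, diluted with water, was sprayed on the foliage at a rate equal to 5 l per are with a pressure-operated ULV sprayer. Damage and crop injury were scored on day 30.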

[4] = tested on: common lambsquarters; assay: Upland foliar application test (Test 3); type: in vivo; conditions: 30 g ai/a, foliar spray at 2-3 leaves, 30th day
Method in brief: as §2

[5] = tested on: foxtail meadow; assay: Upland foliar application test (Test 3); type: in vivo; conditions: 30 g ai/a, foliar spray at 2-3 leaves, 30th day
Method in brief: as §2

[6] = tested on: green foxtail; assay: Upland foliar application test (Test 3); type: in vivo; conditions: 30 g ai/a, foliar spray at 2-3 leaves, 30th day
Method in brief: as §2

[7] = tested on: johnsongrass; assay: Upland foliar application test (Test 3); type: in vivo; conditions: 30 g ai/a, foliar spray at 2-3 leaves, 30th day
Method in brief: as §2

[8] = tested on: large crabgrass; assay: Upland foliar application test (Test 3); type: in vivo; conditions: 30 g ai/a, foliar spray at 2-3 leaves, 30th day
Method in brief: as §2

[9] = tested on: redroot pigweed; assay: Upland foliar application test (Test 3); type: in vivo; conditions: 30 g ai/a, foliar spray at 2-3 leaves, 30th day
Method in brief: as §2

[10] = tested on: cotton; assay: Upland foliar application test (Test 3), crop injury; type: in vivo; conditions: 30 g ai/a, foliar spray at 2-3 leaves, 30th day
Method in brief: as §2

[11] = tested on: peanut; assay: as above; type: in vivo; conditions: 30 g ai/a, foliar spray at 2-3 leaves, 30th day
Method in brief: as §2

[12] = tested on: soybean; assay: as above; type: in vivo; conditions: 30 g ai/a, foliar spray at 2-3 leaves, 30th day
Method in brief: as §2

[13] = tested on: rice; assay: Treatment of soil under submerged condition, pre-emergence (Test 4), injury; type: in vivo; conditions: 30 g ai/a granule, 30 days later
Method in brief: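 Flooded soil pots; weeds sown/planted, rice transplanted (2 pairs, 2–3 leaf), greenhouse. Granule applied day 1, pre-emergence of weeds. Scored at 30 d for weed damage and rice injury.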

[14] = tested on: Sagittaria pygmaea; assay: Treatment of soil under submerged condition, post-emergence (Test 5); type: in vivo; conditions: 30 g ai/a granule, 30 days later
Method in brief: (§3)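 Granule applied to submerged greenhouse pots at two-leaf barnyardgrass; transplanted 2–3-leaf rice present; weed damage and rice injury graded 30 days on.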

[15] = tested on: barnyardgrass; assay: as above; type: in vivo; conditions: 30 g ai/a granule, post-emergence (barnyardgrass two-leaf stage), 30 days later
Method in brief: as §3

[16] = tested on: bulrush; assay: as above; type: in vivo; conditions: 30 g ai/a granule, 30 days later
Method in brief: as §3

[17] = tested on: rice; assay: Treatment of soil under submerged condition, post-emergence (Test 5), injury; type: in vivo; conditions: 30 g ai/a granule, 30 days later
Method in brief: as §3

Structure (SMILES) | Inhibitory activity (%) Barnyardgrass [1] [%] | Inhibitory activity (%) Pea [2] [%] | Herbicidal effects Barnyardgrass [3] | Herbicidal effects Common lambsquarters [4] | Herbicidal effects Foxtail meadow [5] | Herbicidal effects Green foxtail [6] | Herbicidal effects Johnsongrass [7] | Herbicidal effects Large crabgrass [8] | Herbicidal effects Redroot pigweed [9] | Injury Cotton [10] | Injury Peanut [11] | Injury Soybean [12] | Injury Rice [13] | Herbicidal effects Sagittaria Pygmaea [14] | Herbicidal effects Barnyardgrass [15] | Herbicidal effects Bulrush [16] | Injury Rice [17]
CC=CCON=Cc1ccccc1Oc1nc(OC)cc(OC)n1 [compound 8] | 41 | 0 | 4 (6-10 (Severe damages)) | 4 (6-10 (Severe damages)) | 5 (0-5 (Death)) | 5 (0-5 (Death)) | 5 (0-5 (Death)) | 3 (11-40 (Medium damages)) | 5 (0-5 (Death)) | 0 (91-100 (No damages)) | 0 (91-100 (No damages)) | 0 (91-100 (No damages)) | 1 (71-90 (Slight damages)) | 5 (0-5 (Death)) | 5 (0-5 (Death)) | 5 (0-5 (Death)) | 1 (71-90 (Slight damages))
COc1cc(OC)nc(Oc2ccccc2C=NOCC=Cc2cccc(Cl)c2Cl)n1 [compound 41] | 89 | 0 | 5 (0-5 (Death)) | 4 (6-10 (Severe damages)) | 4 (6-10 (Severe damages)) | 4 (6-10 (Severe damages)) | 5 (0-5 (Death)) | 5 (0-5 (Death)) | 5 (0-5 (Death)) | 0 (91-100 (No damages)) | 0 (91-100 (No damages)) | 0 (91-100 (No damages)) | 0 (91-100 (No damages)) | 4 (6-10 (Severe damages)) | 5 (0-5 (Death)) | 4 (6-10 (Severe damages)) | 0 (91-100 (No damages))
COc1cc(OC)nc(Oc2ccccc2C=NOCC=Cc2ccccc2C(F)(F)F)n1 [compound 32] | 91 | 0 | 5 (0-5 (Death)) | 4 (6-10 (Severe damages)) | 5 (0-5 (Death)) | 5 (0-5 (Death)) | 5 (0-5 (Death)) | 5 (0-5 (Death)) | 5 (0-5 (Death)) | 0 (91-100 (No damages)) | 0 (91-100 (No damages)) | 0 (91-100 (No damages)) | 0 (91-100 (No damages)) | 4 (6-10 (Severe damages)) | 5 (0-5 (Death)) | 4 (6-10 (Severe damages)) | 1 (71-90 (Slight damages))
